Reference: ChEMBL document CHEMBL3870328, “Synthesis of novel Ral inhibitors: An in vitro and in vivo study” (Bioorg Med Chem Lett, 2016)

Assays:
[1] = Drug metabolism in mouse xenografted with human NCI-H2122 cells assessed as M3 metabolite formation in heart at 50 mg/kg, ip after 3 hrs by LC-MS/MS analysis; format: ADME, organism-based; conditions: in vivo
[2] = Drug metabolism in mouse xenografted with human NCI-H2122 cells assessed as M5 metabolite formation in liver at 50 mg/kg, ip after 3 hrs by LC-MS/MS analysis; format: ADME, organism-based; conditions: in vivo
[3] = Drug metabolism in mouse xenografted with human NCI-H2122 cells assessed as 6-amino-4-(2,5-dihydroxyphenyl)-3-(naphthalen-2-yl)-1,4-dihydropyrano[2,3-c]pyrazole-5-carbonitrile metabolite formation in heart at 50 mg/kg, ip after 3 hrs by LC-MS/MS analysis; format: ADME, organism-based; conditions: in vivo, BLD = below limit of detection
[4] = Drug uptake in heart of mouse xenografted with human NCI-H2122 cells at 50 mg/kg, ip after 3 hrs by LC-MS/MS analysis; format: ADME, organism-based; conditions: read-out: Drug uptake
[5] = Drug uptake in liver of mouse xenografted with human NCI-H2122 cells at 50 mg/kg, ip after 3 hrs by LC-MS/MS analysis; format: ADME, organism-based; conditions: read-out: Drug uptake
[6] = Drug metabolism in mouse xenografted with human NCI-H2122 cells assessed as M1 metabolite formation in liver at 50 mg/kg, ip after 3 hrs by LC-MS/MS analysis; format: ADME, organism-based; conditions: in vivo
[7] = Drug metabolism in CD1 mouse liver microsomes assessed as CYP450-mediated mono-oxidation by measuring M1 metabolite formation at 16.7 uM after 10 mins in presence of NADPH by LC-MS/MS analysis; format: ADME
[8] = Drug metabolism in mouse xenografted with human NCI-H2122 cells assessed as M4 metabolite formation in kidney at 50 mg/kg, ip after 3 hrs by LC-MS/MS analysis; format: ADME, organism-based; conditions: in vivo
[9] = Drug metabolism in mouse xenografted with human NCI-H2122 cells assessed as 6-amino-4-(2,5-dihydroxyphenyl)-3-(naphthalen-2-yl)-1,4-dihydropyrano[2,3-c]pyrazole-5-carbonitrile metabolite formation in plasma at 50 mg/kg, ip after 3 hrs by LC-MS/MS analysis; format: ADME, organism-based; conditions: in vivo
[10] = Drug metabolism in CD1 mouse liver microsomes assessed as CYP450-mediated mono-oxidation by measuring M5 metabolite formation at 16.7 uM after 10 mins in presence of NADPH by LC-MS/MS analysis; format: ADME

- Drug metabolism [1]: 1.1 ng/g
- Drug metabolism [2]: 72.6 ng/g
- Drug metabolism [3]: Bld
- concentration at 3 h [4]: 13700 ng/g
- concentration at 3 h [5]: 39700 ng/g
- Drug metabolism [6]: 557.4 ng/g
- Drug metabolism [7]: Metabolite_Detected
- Drug metabolism [8]: 260 ng/g
- Drug metabolism [9]: 8.4 ng/mL
- Drug metabolism [10]: Metabolite_Detected
SMILES: COc1ccc(OC)c(C2C(C#N)=C(N)Oc3[nH]nc(-c4ccc5ccccc5c4)c32)c1 (stereo not given)
